Data from patent publication EP4692114A1, “CALCITONIN ANALOGUE, AND DERIVATIVE THEREOF AND USE THEREOF” (Hangzhou Sciwind Biosciences Co., Ltd., priority 2023, dated 2024).
*1 amine or outer side, *2 acyl side, *3 side chain or, on linkers, in order; H or OH if unused. Where a SMILES comes first, the peptide text is derived from it. Where no end group is shown, it is not given here. [ ]: non-standard residue; d: D form. The star is where a group is joined. C22 diacid = O=C(O)CCCCCCCCCCCCCCCCCCCCC(=O)*; C20 diacid = O=C(O)CCCCCCCCCCCCCCCCCCC(=O)*; γGlu = O=C(O)[C@H](CCC(=O)[*:2])N[*:1]; βAsp = O=C(O)[C@H](CC(=O)[*:2])N[*:1]; AEEA = NCCOCCOCC(=O)O

T1: human amylin receptors (Homo sapiens, UniProt O60896+P30988)
T1 sequence (P30988 25-474): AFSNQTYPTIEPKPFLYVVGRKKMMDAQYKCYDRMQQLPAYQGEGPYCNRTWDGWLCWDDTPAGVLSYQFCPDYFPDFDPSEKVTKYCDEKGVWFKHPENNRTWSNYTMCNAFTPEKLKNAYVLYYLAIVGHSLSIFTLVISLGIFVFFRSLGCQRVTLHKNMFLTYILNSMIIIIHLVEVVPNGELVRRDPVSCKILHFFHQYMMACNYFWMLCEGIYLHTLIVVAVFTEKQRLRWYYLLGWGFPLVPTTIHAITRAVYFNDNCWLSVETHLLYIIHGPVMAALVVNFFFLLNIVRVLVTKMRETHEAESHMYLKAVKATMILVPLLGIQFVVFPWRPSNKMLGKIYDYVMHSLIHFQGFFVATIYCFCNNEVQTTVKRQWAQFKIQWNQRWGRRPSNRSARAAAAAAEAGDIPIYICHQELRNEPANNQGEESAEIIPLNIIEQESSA
T1 sequence (O60896 24-148 partner): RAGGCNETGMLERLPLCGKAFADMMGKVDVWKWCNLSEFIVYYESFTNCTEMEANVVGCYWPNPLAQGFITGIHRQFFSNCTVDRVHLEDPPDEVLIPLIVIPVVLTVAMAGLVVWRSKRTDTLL

T2: human amylin receptor (AMY3) on CHO-K1/Gal5/AMY3 cells (human, UniProt P30988 25-474; O60896 24-148)
T2 sequence (looked up) 1: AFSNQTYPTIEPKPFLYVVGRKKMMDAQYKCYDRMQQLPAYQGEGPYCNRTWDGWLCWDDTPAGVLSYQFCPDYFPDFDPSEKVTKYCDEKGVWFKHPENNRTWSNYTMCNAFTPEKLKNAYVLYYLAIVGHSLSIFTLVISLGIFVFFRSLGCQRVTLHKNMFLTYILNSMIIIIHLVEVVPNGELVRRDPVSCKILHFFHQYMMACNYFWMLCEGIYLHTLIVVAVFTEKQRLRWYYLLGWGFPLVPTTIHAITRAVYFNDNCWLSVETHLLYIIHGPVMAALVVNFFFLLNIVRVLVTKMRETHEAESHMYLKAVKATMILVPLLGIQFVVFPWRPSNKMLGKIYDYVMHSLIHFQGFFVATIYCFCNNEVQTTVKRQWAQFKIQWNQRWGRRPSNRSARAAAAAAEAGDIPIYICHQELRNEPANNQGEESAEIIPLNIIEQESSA
T2 sequence (looked up) 2: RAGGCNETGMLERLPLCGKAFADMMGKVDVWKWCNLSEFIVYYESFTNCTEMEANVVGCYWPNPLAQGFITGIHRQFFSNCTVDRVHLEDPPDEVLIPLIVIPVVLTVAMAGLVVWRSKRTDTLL


What follows are molecules tested against T1, human amylin receptors (assay: Luciferase assay of amylin (amylin receptor/CRE-luc cell line)). Conditions: stably transfected amylin receptor/CRE-luc CHO cells (CHO-K1/Gal5/AMY3), 24 hours incubation, luciferase readout.
Type: cell-based

Molecule	EC50
CC(C)C[C@H](NC(=O)[C@H](CCCNC(=N)N)NC(=O)CNC(=O)[C@H](CC(C)C)NC(=O)[C@@H](NC(=O)[C@H](C)NC(=O)[C@@H](NC(=O)[C@H](CO)NC(=O)[C@H](CC(C)C)NC(=O)[C@H](CCC(N)=O)NC(=O)[C@H](CO)NC(=O)[C@H](C)NC(=O)COCCOCCNC(=O)COCCOCCNC(=O)[C@H](CC(=O)O)NC(=O)CCCCCCCCCCCCCCCCCCC(=O)O)[C@@H](C)O)C(C)C)C(=O)N[C@@H](CO)C(=O)N[C@@H](CCC(=O)O)C(=O)N[C@@H](CCC(=O)O)C(=O)N[C@@H](CC(C)C)C(=O)N[C@@H](Cc1c[nH]cn1)C(=O)N[C@@H](CCCNC(=N)N)C(=O)N[C@@H](CC(C)C)C(=O)N[C@@H](CCC(N)=O)C(=O)N[C@@H](CC(=O)O)C(=O)N[C@@H](Cc1ccc(O)cc1)C(=O)N1CCC[C@H]1C(=O)N[C@@H](CCCNC(=N)N)C(=O)N[C@H](C(=O)N[C@@H](CC(=O)O)C(=O)N[C@H](C(=O)NCC(=O)N[C@@H](CO)C(=O)NCC(=O)N[C@@H](CO)C(=O)N1CCC[C@H]1C(N)=O)C(C)C)[C@@H](C)O [M60] ({C20 diacid}-D[AEEA][AEEA]ASQLSTAVLGRLSEELHRLQDYPRTDVGSGSP-NH2)	0.016 nM
CC(C)C[C@H](NC(=O)[C@H](CCCNC(=N)N)NC(=O)CNC(=O)[C@H](CC(C)C)NC(=O)[C@@H](NC(=O)[C@H](C)NC(=O)[C@@H](NC(=O)[C@H](CO)NC(=O)[C@H](CC(C)C)NC(=O)[C@H](CCC(N)=O)NC(=O)[C@H](CO)NC(=O)[C@H](C)NC(=O)COCCOCCNC(=O)COCCOCCNC(=O)CC[C@H](NC(=O)CCCCCCCCCCCCCCCCCCCCC(=O)O)C(=O)O)[C@@H](C)O)C(C)C)C(=O)N[C@@H](CO)C(=O)N[C@@H](CCC(=O)O)C(=O)N[C@@H](CCC(=O)O)C(=O)N[C@@H](CC(C)C)C(=O)N[C@@H](Cc1c[nH]cn1)C(=O)N[C@@H](CCCNC(=N)N)C(=O)N[C@@H](CC(C)C)C(=O)N[C@@H](CCC(N)=O)C(=O)N[C@@H](CC(=O)O)C(=O)N[C@@H](Cc1ccc(O)cc1)C(=O)N1CCC[C@H]1C(=O)N[C@@H](CCCNC(=N)N)C(=O)N[C@H](C(=O)N[C@@H](CC(=O)O)C(=O)N[C@H](C(=O)NCC(=O)N[C@@H](CO)C(=O)NCC(=O)N[C@@H](CO)C(=O)N1CCC[C@H]1C(N)=O)C(C)C)[C@@H](C)O [M66] ({C22 diacid-γGlu-AEEA-AEEA}-ASQLSTAVLGRLSEELHRLQDYPRTDVGSGSP-NH2)	0.017 nM

Further lines, results first:

EC50	Molecule
0.016 nM	CC(C)C[C@H](NC(=O)CC[C@H](NC(=O)CCCCCCCCCCCCCCCCCCC(=O)O)C(=O)O)C(=O)N[C@@H](CO)C(=O)N[C@@H](CCC(N)=O)C(=O)N[C@@H](CC(C)C)C(=O)N[C@@H](CO)C(=O)N[C@H](C(=O)N[C@@H](CC(C)C)C(=O)N[C@H](C(=O)N[C@@H](CC(C)C)C(=O)NCC(=O)N[C@@H](CCCNC(=N)N)C(=O)N[C@@H](CC(C)C)C(=O)N[C@@H](CO)C(=O)N[C@@H](CCC(N)=O)C(=O)N[C@@H](CCC(=O)O)C(=O)N[C@@H](CC(C)C)C(=O)N[C@@H](Cc1c[nH]cn1)C(=O)N[C@@H](CCCNC(=N)N)C(=O)N[C@@H](CC(C)C)C(=O)N[C@@H](CCC(N)=O)C(=O)N[C@@H](CC(=O)O)C(=O)N[C@@H](Cc1ccc(O)cc1)C(=O)N1CCC[C@H]1C(=O)N[C@@H](CCCNC(=N)N)C(=O)N[C@H](C(=O)N[C@@H](CC(=O)O)C(=O)N[C@H](C(=O)NCC(=O)N[C@@H](CO)C(=O)NCC(=O)N[C@@H](CO)C(=O)N1CCC[C@H]1C(N)=O)C(C)C)[C@@H](C)O)C(C)C)[C@@H](C)O [M25] ({C20 diacid-γGlu}-LSQLSTLVLGRLSQELHRLQDYPRTDVGSGSP-NH2)
0.017 nM	CC(C)C[C@H](NC(=O)[C@H](CCCNC(=N)N)NC(=O)CNC(=O)[C@H](CC(C)C)NC(=O)[C@@H](NC(=O)[C@H](C)NC(=O)[C@@H](NC(=O)[C@H](CO)NC(=O)[C@H](CC(C)C)NC(=O)[C@H](CCC(N)=O)NC(=O)[C@H](CO)NC(=O)[C@H](C)NC(=O)[C@H](CC(=O)O)NC(=O)CCCCCCCCCCCCCCCCCCC(=O)O)[C@@H](C)O)C(C)C)C(=O)N[C@@H](CO)C(=O)N[C@@H](CCC(=O)O)C(=O)N[C@@H](CCC(=O)O)C(=O)N[C@@H](CC(C)C)C(=O)N[C@@H](Cc1c[nH]cn1)C(=O)N[C@@H](CCCNC(=N)N)C(=O)N[C@@H](CC(C)C)C(=O)N[C@@H](CCC(N)=O)C(=O)N[C@@H](CC(=O)O)C(=O)N[C@@H](Cc1ccc(O)cc1)C(=O)N1CCC[C@H]1C(=O)N[C@@H](CCCNC(=N)N)C(=O)N[C@H](C(=O)N[C@@H](CC(=O)O)C(=O)N[C@H](C(=O)NCC(=O)N[C@@H](CO)C(=O)NCC(=O)N[C@@H](CO)C(=O)N1CCC[C@H]1C(N)=O)C(C)C)[C@@H](C)O [M54] ({C20 diacid}-DASQLSTAVLGRLSEELHRLQDYPRTDVGSGSP-NH2)
0.017 nM	CC(C)C[C@H](NC(=O)[C@H](CCCNC(=N)N)NC(=O)CNC(=O)[C@H](CC(C)C)NC(=O)[C@@H](NC(=O)[C@H](C)NC(=O)[C@@H](NC(=O)[C@H](CO)NC(=O)[C@H](CC(C)C)NC(=O)[C@H](CCC(N)=O)NC(=O)[C@H](CO)NC(=O)[C@H](C)NC(=O)COCCOCCNC(=O)COCCOCCNC(=O)[C@H](CCC(=O)O)NC(=O)CCCCCCCCCCCCCCCCCCC(=O)O)[C@@H](C)O)C(C)C)C(=O)N[C@@H](CO)C(=O)N[C@@H](CCC(=O)O)C(=O)N[C@@H](CCC(=O)O)C(=O)N[C@@H](CC(C)C)C(=O)N[C@@H](Cc1c[nH]cn1)C(=O)N[C@@H](CCCNC(=N)N)C(=O)N[C@@H](CC(C)C)C(=O)N[C@@H](CCC(N)=O)C(=O)N[C@@H](CC(=O)O)C(=O)N[C@@H](Cc1ccc(O)cc1)C(=O)N1CCC[C@H]1C(=O)N[C@@H](CCCNC(=N)N)C(=O)N[C@H](C(=O)N[C@@H](CC(=O)O)C(=O)N[C@H](C(=O)NCC(=O)N[C@@H](CO)C(=O)NCC(=O)N[C@@H](CO)C(=O)N1CCC[C@H]1C(N)=O)C(C)C)[C@@H](C)O [M58] ({C20 diacid}-E[AEEA][AEEA]ASQLSTAVLGRLSEELHRLQDYPRTDVGSGSP-NH2)
0.017 nM	CC(C)C[C@H](NC(=O)[C@H](CCCNC(=N)N)NC(=O)CNC(=O)[C@H](CC(C)C)NC(=O)[C@@H](NC(=O)[C@H](C)NC(=O)[C@@H](NC(=O)[C@H](CO)NC(=O)[C@H](CC(C)C)NC(=O)[C@H](CCC(N)=O)NC(=O)[C@H](CO)NC(=O)[C@H](C)NC(=O)COCCOCCNC(=O)COCCOCCNC(=O)C[C@H](NC(=O)CCCCCCCCCCCCCCCCCCC(=O)O)C(=O)O)[C@@H](C)O)C(C)C)C(=O)N[C@@H](CO)C(=O)N[C@@H](CCC(=O)O)C(=O)N[C@@H](CCC(=O)O)C(=O)N[C@@H](CC(C)C)C(=O)N[C@@H](Cc1c[nH]cn1)C(=O)N[C@@H](CCCNC(=N)N)C(=O)N[C@@H](CC(C)C)C(=O)N[C@@H](CCC(N)=O)C(=O)N[C@@H](CC(=O)O)C(=O)N[C@@H](Cc1ccc(O)cc1)C(=O)N1CCC[C@H]1C(=O)N[C@@H](CCCNC(=N)N)C(=O)N[C@H](C(=O)N[C@@H](CC(=O)O)C(=O)N[C@H](C(=O)NCC(=O)N[C@@H](CO)C(=O)NCC(=O)N[C@@H](CO)C(=O)N1CCC[C@H]1C(N)=O)C(C)C)[C@@H](C)O [M59] ({C20 diacid-βAsp-AEEA-AEEA}-ASQLSTAVLGRLSEELHRLQDYPRTDVGSGSP-NH2)

Each molecule was assayed against T2, human amylin receptor (AMY3) on … (assay: cell-based or functional assay). Conditions: not given.

EC50/nM, CRE-luciferase in amylin receptor/CRE-luc CHO cells	Molecule
0.033 nM	ASQLSTAVLGRLSQELHRLQDYPRTDVGSGSP-NH2 [calcitonin analogue M5]
0.017 nM	{C20 diacid}-DASQLSTAVLGRLSEELHRLQDYPRTDVGSGSP-NH2 (SMILES CC(C)C[C@H](NC(=O)[C@H](CCCNC(=N)N)NC(=O)CNC(=O)[C@H](CC(C)C)NC(=O)[C@@H](NC(=O)[C@H](C)NC(=O)[C@@H](NC(=O)[C@H](CO)NC(=O)[C@H](CC(C)C)NC(=O)[C@H](CCC(N)=O)NC(=O)[C@H](CO)NC(=O)[C@H](C)NC(=O)[C@H](CC(=O)O)NC(=O)CCCCCCCCCCCCCCCCCCC(=O)O)[C@@H](C)O)C(C)C)C(=O)N[C@@H](CO)C(=O)N[C@@H](CCC(=O)O)C(=O)N[C@@H](CCC(=O)O)C(=O)N[C@@H](CC(C)C)C(=O)N[C@@H](Cc1c[nH]cn1)C(=O)N[C@@H](CCCNC(=N)N)C(=O)N[C@@H](CC(C)C)C(=O)N[C@@H](CCC(N)=O)C(=O)N[C@@H](CC(=O)O)C(=O)N[C@@H](Cc1ccc(O)cc1)C(=O)N1CCC[C@H]1C(=O)N[C@@H](CCCNC(=N)N)C(=O)N[C@H](C(=O)N[C@@H](CC(=O)O)C(=O)N[C@H](C(=O)NCC(=O)N[C@@H](CO)C(=O)NCC(=O)N[C@@H](CO)C(=O)N1CCC[C@H]1C(N)=O)C(C)C)[C@@H](C)O) [calcitonin derivative M54]
